Test results: patent publication US5849743A, “Quinoxalines and drugs prepared therefrom” (BASF Aktiengesellschaft, priority 1997, dated 1998)

Target: AMPA receptors
Assay: Binding of 3H-AMPA to rat cerebral membrane material
Conditions: displacement of 3H-AMPA, membrane material from rat cerebra, incubated on ice for 60 minutes
Procedure: The pharmacological activity of the compounds I according to the invention was investigated on isolated membrane material from rat brains. For this purpose, the membrane material was incubated in the presence of the substances according to the invention with the radiolabeled substances ^3 H-2-amino-3-hydroxy-5-methyl-4-isoxazolepropionic acid (^3 H-AMPA), ^3 H-5,7-dichlorokynurenic acid or ^3 H-kainate. During this the said radioligands bind in each case to the glutamate receptors specific for them, ie. to AMPA receptors, (^3 H-5,7-dichlorokynurenic acid-binding) NMDA receptors and kainate receptors respectively. After the incubation, the membranes with the receptor-bound radioligands were separated from the free radioligands, and the radioactivity associated with the membranes as measured by liquid scintillation counting. The concentration of receptor-bound ligands, and the extent of displacement of a given radioligand by particular concentrations of the compounds I according to the invention, can be determined from the radioactivity of the membranes. […]

Ki | SMILES
< 10 µM | O=C(NCc1ccn(-c2cc3[nH]c(=O)c(=O)[nH]c3cc2[N+](=O)[O-])c1)c1ccncc1 [Example 3, acetate]
< 10 µM | O=C(O)Cn1c(=O)c(=O)[nH]c2cc([N+](=O)[O-])c(-n3ccc(CN4CCCCC4)c3)cc21 [Example 14, 1-Carboxymethyl-6-nitro-7-(3-((1-piperidinyl)methyl)-1-pyrrolyl)quinoxaline-2,3(1H,4H)-dione]
